The test system of series [1] is Mus musculus. The series can be described thus: Cognitive enhancing effect in amyloid beta (1 to 42)-induced dementia Balb/c mouse model assessed as protection against spatial memory impairment by measuring latency to find food on third and fourth days of test at 10 mg/kg, po qd via gavage for 17 days starting from 24 hrs post amyloid beta (1 to 42) oligomer treatment measured on day 14 by radial arm-maze test. The format is functional, organism-based.

In series [2] the test system is Mus musculus. The series can be described thus: Cognitive enhancing effect in amyloid beta (1 to 42)-induced dementia Balb/c mouse model assessed as protection against spatial memory impairment by measuring reduction in total errors to find food on third and fourth days of test at 10 mg/kg, po qd via gavage for 17 days starting from 24 hrs post amyloid beta (1 to 42) oligomer treatment measured on day 14 by radial arm-maze test. The format is functional, organism-based.

Series [3] relates to Mus musculus. The series can be described thus: Cognitive enhancing effect in Balb/c mouse assessed as protection against amyloid beta (1 to 42) oligomers-induced memory damage at 10 mg/kg, po qd via gavage for 17 days starting from 24 hrs post amyloid beta (1 to 42) oligomer treatment measured on day 14 by Y-maze test. The format is functional, organism-based.
Series [4] has as its system Mus musculus. The series can be described thus: Cognitive enhancing effect in amyloid beta (1 to 42)-induced dementia Balb/c mouse model assessed as protection against spatial memory impairment by measuring reduction in total errors to find food on third and fourth days of test at 1 to 10 mg/kg, po qd via gavage for 17 days starting from 24 hrs post amyloid beta (1 to 42) oligomer treatment measured on day 14 by radial arm-maze test. Type of series: functional, organism-based.

Series [5] can be described thus: Selectivity ratio of Ki for sigma2 receptor in rat liver membranes to Ki for human sigma1 receptor expressed in HEK293 cell membranes. The format is cell-based.
The subject of series [6] is Mus musculus. The series can be described thus: Cognitive enhancing effect in Balb/c mouse assessed as protection against amyloid beta (1 to 42) oligomers-induced memory damage at 1 to 10 mg/kg, po qd via gavage for 17 days starting from 24 hrs post amyloid beta (1 to 42) oligomer treatment measured on day 14 by Y-maze test. The format is functional, organism-based.
Series [7] relates to Mus musculus. The series can be described thus: Cognitive enhancing effect in amyloid beta (1 to 42)-induced dementia Balb/c mouse model assessed as protection against spatial memory impairment by measuring latency to find food on fourth day of test at 1 to 10 mg/kg, po qd via gavage for 17 days starting from 24 hrs post amyloid beta (1 to 42) oligomer treatment measured on day 14 by radial arm-maze test. The format is functional, organism-based.

Series [8] deals with Mus musculus. The series can be described thus: In vivo antagonist activity at sigma1 receptor in sc dosed capsaicin-induced mechanical allodynia CD-1 mouse model assessed as increase in paw withdrawal latency pretreated for 30 mins followed by capsaicin treatment measured after 2 hrs. Type of series: functional, organism-based.
Series [9] deals with T1, Vesicular acetylcholine transporter (Rattus norvegicus, UniProt Q62666).
T1 sequence (Q62666 whole entry): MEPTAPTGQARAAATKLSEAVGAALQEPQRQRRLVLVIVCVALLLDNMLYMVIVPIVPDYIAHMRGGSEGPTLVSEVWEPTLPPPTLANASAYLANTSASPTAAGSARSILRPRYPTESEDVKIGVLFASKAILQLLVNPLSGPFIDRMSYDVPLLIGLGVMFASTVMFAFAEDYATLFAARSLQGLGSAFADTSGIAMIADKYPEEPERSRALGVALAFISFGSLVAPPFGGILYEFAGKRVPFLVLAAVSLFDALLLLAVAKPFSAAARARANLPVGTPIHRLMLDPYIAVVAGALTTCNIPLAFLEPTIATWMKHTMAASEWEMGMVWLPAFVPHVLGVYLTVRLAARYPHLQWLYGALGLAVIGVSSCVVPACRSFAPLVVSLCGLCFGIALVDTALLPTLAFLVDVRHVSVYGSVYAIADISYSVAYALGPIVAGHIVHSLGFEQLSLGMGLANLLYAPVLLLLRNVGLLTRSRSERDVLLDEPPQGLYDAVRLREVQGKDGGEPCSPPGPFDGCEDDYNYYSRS
The series can be described thus: Displacement of (-)-[3H]vesamicol from rat VAChT expressed in rat PC12 cell membranes after 60 mins by liquid scintillation counting method.

For series [10], the target named is Sigma non-opioid intracellular receptor 1 (Homo sapiens, UniProt Q99720). The series can be described thus: Displacement of (+)-[3H]pentazocine from human sigma1 receptor expressed in HEK293 cell membranes after 60 mins by liquid scintillation counting method.
Series [11] addresses T2, Sigma intracellular receptor 2 (Rattus norvegicus, UniProt Q5U3Y7).
T2 sequence (Q5U3Y7 whole entry): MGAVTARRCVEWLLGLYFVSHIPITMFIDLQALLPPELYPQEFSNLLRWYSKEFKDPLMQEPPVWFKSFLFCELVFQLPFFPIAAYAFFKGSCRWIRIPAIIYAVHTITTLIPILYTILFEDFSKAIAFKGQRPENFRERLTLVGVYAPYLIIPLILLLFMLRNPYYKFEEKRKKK
The series can be described thus: Displacement of [3H]DTG from sigma2 receptor in rat liver membranes after 60 mins by liquid scintillation counting method. The format is cell membranes, Membrane. On the technique in general: Displacement assays read how much labelled ligand stays bound in the presence of the test substance.

The subject of series [12] is Mus musculus. The series can be described thus: In vivo agonist activity at sigma1 receptor in sc dosed capsaicin-induced mechanical allodynia CD-1 mouse model assessed as decrease in paw withdrawal latency pretreated for 30 mins followed by capsaicin treatment measured after 2 hrs. Type of series: functional, organism-based.
The test system of series [13] is Mus musculus. The series can be described thus: Induction of memory damage in Balb/c mouse at 1 to 10 mg/kg, po qd via gavage for 17 measured on day 14 by Y-maze test. The format is organism-based. Conditions: in vivo.
Series [14] deals with Cholinesterase (Homo sapiens, UniProt P06276). The series can be described thus: Inhibition of human plasma BuChE using acetylthiocholine iodide as substrate by Ellman's method.
The target of series [15] is Acetylcholinesterase (Homo sapiens, UniProt P22303). The series can be described thus: Inhibition of recombinant human AChE using acetylthiocholine iodide as substrate by Ellman's method. In general terms: Ellman's reagent forms a yellow product with free thiols.
Series [16] concerns Mus musculus. The series can be described thus: Cognitive enhancing effect in amyloid beta (1 to 42)-induced dementia Balb/c mouse model assessed as protection against spatial memory impairment by measuring latency to find food on second, third and fourth days of test at 1 to 10 mg/kg, po qd via gavage for 17 days starting from 24 hrs post amyloid beta (1 to 42) oligomer treatment measured on day 14 by radial arm-maze test. The format is functional, organism-based.

Series [17] concerns Mus musculus. The series can be described thus: Cognitive enhancing effect in amyloid beta (1 to 42)-induced dementia Balb/c mouse model assessed as protection against spatial memory impairment by measuring reduction in total errors to find food on second, third and fourth days of test at 1 to 10 mg/kg, po qd via gavage for 17 days starting from 24 hrs post amyloid beta (1 to 42) oligomer treatment measured on day 14 by radial arm-maze test. The format is functional, organism-based.

Series [18] deals with Histamine H3 receptor (Homo sapiens, UniProt Q9Y5N1). The series can be described thus: Displacement of [3H]-N-alpha-methylhistamine from human H3R expressed in HEK293 cell membranes after 90 mins by liquid scintillation counting method.

Active and inactive are the calls of the source. The calls are words filed in the database; no cut-off is given here.

Chain of Sigma non-opioid intracellular receptor 1 (Q99720 whole entry): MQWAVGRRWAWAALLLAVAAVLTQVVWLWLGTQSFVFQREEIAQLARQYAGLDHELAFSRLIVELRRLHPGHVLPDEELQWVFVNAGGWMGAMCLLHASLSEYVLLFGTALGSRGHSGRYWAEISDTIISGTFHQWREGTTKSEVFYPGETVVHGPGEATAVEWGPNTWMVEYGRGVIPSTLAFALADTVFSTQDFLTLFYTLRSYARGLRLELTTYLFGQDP
Chain of Histamine H3 receptor (Q9Y5N1 whole entry): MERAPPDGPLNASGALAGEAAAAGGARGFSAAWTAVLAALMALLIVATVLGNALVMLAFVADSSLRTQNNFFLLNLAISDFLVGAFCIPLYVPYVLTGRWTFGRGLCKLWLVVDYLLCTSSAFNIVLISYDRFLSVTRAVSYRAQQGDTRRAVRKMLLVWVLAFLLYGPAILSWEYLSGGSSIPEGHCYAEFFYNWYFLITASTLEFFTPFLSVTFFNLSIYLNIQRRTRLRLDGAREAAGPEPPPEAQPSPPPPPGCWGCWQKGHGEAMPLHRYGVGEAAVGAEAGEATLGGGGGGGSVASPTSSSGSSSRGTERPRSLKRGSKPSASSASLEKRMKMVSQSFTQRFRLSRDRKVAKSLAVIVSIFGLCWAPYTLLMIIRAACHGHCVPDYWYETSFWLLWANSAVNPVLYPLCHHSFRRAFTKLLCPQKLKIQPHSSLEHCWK
Chain of Acetylcholinesterase (P22303 whole entry): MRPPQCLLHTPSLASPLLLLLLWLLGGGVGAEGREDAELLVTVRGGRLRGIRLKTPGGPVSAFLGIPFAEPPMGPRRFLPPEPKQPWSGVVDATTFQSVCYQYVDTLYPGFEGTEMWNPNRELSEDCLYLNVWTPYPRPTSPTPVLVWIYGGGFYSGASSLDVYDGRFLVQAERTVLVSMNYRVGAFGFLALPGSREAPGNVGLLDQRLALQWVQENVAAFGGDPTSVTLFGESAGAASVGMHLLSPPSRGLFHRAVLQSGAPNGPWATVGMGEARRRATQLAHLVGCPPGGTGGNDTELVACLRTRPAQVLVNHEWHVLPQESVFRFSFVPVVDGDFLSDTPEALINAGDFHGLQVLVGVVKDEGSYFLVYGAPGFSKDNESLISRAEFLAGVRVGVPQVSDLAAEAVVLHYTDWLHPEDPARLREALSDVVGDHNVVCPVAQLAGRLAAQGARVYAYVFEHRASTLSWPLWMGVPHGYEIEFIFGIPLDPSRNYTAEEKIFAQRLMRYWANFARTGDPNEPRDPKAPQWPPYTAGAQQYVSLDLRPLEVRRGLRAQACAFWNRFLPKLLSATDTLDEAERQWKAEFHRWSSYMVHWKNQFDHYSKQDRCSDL
Chain of Cholinesterase (P06276 whole entry): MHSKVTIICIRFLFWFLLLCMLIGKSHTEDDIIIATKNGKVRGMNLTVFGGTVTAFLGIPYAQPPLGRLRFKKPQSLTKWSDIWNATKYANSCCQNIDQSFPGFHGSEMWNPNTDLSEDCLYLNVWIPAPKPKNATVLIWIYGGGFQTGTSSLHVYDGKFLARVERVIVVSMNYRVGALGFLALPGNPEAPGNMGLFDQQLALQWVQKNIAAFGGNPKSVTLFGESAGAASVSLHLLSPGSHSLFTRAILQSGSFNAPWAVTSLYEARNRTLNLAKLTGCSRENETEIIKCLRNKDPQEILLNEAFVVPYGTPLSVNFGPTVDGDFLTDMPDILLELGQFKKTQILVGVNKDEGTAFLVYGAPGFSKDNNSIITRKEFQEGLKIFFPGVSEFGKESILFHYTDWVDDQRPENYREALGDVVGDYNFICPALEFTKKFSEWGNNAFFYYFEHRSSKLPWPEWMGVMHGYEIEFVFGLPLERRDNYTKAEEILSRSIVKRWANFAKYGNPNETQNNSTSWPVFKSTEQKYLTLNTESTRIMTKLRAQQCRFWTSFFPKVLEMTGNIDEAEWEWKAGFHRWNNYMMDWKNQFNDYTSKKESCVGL

Consider `COc1cc2c(cc1OC)C(=O)C(CC1CCN(Cc3ccccc3)CC1)C2` (stereo not given), for which the result in series [1], in series [2] and in [3] was Active.
Usually Ki stands for the equilibrium dissociation constant of an inhibitor or competing ligand from its target. Low readings indicate higher affinity, high ones lower affinity. As for `C#CCN(C)Cc1cc2cc(OCCCC3CCN(Cc4ccccc4)CC3)ccc2n1C`, the result in series [4], in series [6] and in series [7] was Active. Further, the Ratio Ki in series [5] turned out to be 18. For the same compound, the inhibition entry in series [8] is “Dose-dependent effect”. Further, the Ki was 2.58 nM in series [9], 2.83 nM in series [10] and 50.3 nM in series [11].
The IC50 is the concentration that inhibits the measured activity by half. For the compound `C#CCN(C)Cc1cc2cc(OCCCN3CCCCC3)ccc2n1C`, the Activity entry is “Dose-dependent effect” in series [12] and “Non-Toxic” in series [13]. Moreover, the IC50 in series [14] stood at 1690 nM; in series [15] it was 530 nM. For the same compound, the outcome in series [6], in [16] and in [17] was Active. In addition, the Ki in series [9] was determined as 46.3 nM; in series [10], 65.2 nM; in [18], 10.8 nM; in series [11], 326 nM.
For the compound `COc1ccc(CCN2CCN(CCCc3ccccc3)CC2)cc1OC` [[11C]SA4503], the Ki in series [9] was 492 nM; in [11], 62.2 nM.
In [11], `OC1CCCCC1N1CCC(c2ccccc2)CC1` (racemic) showed a Ki of 63.4 nM.

For the origin of these results see ChEMBL document CHEMBL4130636, “Contilisant, a Tetratarget Small Molecule for Alzheimer's Disease Therapy Combining Cholinesterase, Monoamine Oxidase Inhibition, and H3R Antagonism with S1R Agonism Profile” (J Med Chem, 2018).
